ChEMBL document CHEMBL1201862, “PubChem BioAssay data set” (2004)
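1) Cells in 96-well plates. 2) Compound, 48 h, 5 concentrations. 3) Linear interpolation between surrounding doses. 4) Unreached endpoint = highest concentration. The concentration for 50% growth inhibition is given as GI50.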 Activity calls are given as the source filed them. Rule as the data show it: active = GI50 up to about 1.1 µM and inactive = higher.

Tests used:
Test in all cases: NCI anticancer screen, dose series, 48 h
[1] = test system: NCI-H226
[2] = test system: K562
[3] = test system: IGROV-1
[4] = test system: UO-31
[5] = test system: Hs-578T
[6] = test system: SF-295
[7] = test system: MCF7
[8] = test system: U-251
[9] = test system: SNB-19
[10] = test system: CCRF-CEM
[11] = test system: DU-145
[12] = test system: NCI-H522
[13] = test system: EKVX
[14] = test system: RXF 393
[15] = test system: OVCAR-8
[16] = test system: SR
[17] = test system: KM12
[18] = test system: MDA-MB-231
[19] = test system: SK-MEL-28
[20] = test system: NCI/ADR-RES

Row | Structure (SMILES) | GI50 [1] | GI50 [2] | GI50 [3] | GI50 [4] | GI50 [5] | GI50 [6] | GI50 [7] | GI50 [8] | GI50 [9] | GI50 [10] | GI50 [11] | GI50 [12] | GI50 [13] | GI50 [14] | GI50 [15] | GI50 [16] | GI50 [17] | GI50 [18] | GI50 [19] | GI50 [20]
1 | Cc1cc(N(CCOS(C)(=O)=O)CCOS(C)(=O)=O)ccc1/C=N/c1ccc(-c2nc(Cc3ccccc3)sc2C)cc1 | 2.2 µM (inactive) | 5.61 µM (inactive) | 10.7 µM (inactive) | 3.71 µM (inactive) | 10.6 µM (inactive) | 1.57 µM (inactive) | 3.52 µM (inactive) | 6.64 µM (inactive) | 8.3 µM (inactive) | 0.471 µM (active) | 0.834 µM (active) | 0.233 µM (active) | 4.27 µM (inactive) | 0.933 µM (active) | 7.53 µM (inactive) | 1.32 µM (inactive) | 14.2 µM (inactive) | 15.3 µM (inactive) | 14.2 µM (inactive) | 10.6 µM (inactive)
2 | COc1cc2c(cc1OC)C(=O)/C(=C/c1ccc(O)cc1)CC2 | > 10 µM (inactive) | > 10 µM (inactive) | > 10 µM (inactive) | 2.34 µM (inactive) | > 10 µM (inactive) | > 10 µM (inactive) | > 10 µM (inactive) | > 10 µM (inactive) | > 10 µM (inactive) | 1.97 µM (inactive) | > 10 µM (inactive) | – | > 10 µM (inactive) | > 10 µM (inactive) | > 10 µM (inactive) | > 10 µM (inactive) | > 10 µM (inactive) | > 10 µM (inactive) | > 10 µM (inactive) | > 10 µM (inactive)
3 | C=CCCC1CCCCC/C1=N\N(C)C (stereo not drawn) | > 100 µM (inactive) | > 100 µM (inactive) | > 100 µM (inactive) | > 100 µM (inactive) | > 100 µM (inactive) | > 100 µM (inactive) | > 100 µM (inactive) | > 100 µM (inactive) | > 100 µM (inactive) | > 100 µM (inactive) | > 100 µM (inactive) | > 100 µM (inactive) | > 100 µM (inactive) | – | > 100 µM (inactive) | > 100 µM (inactive) | > 100 µM (inactive) | > 100 µM (inactive) | > 100 µM (inactive) | > 100 µM (inactive)
4 | COCN1C(=O)[C@@H]2C[C@@H](O)CN2C(=O)c2ccccc21 | – | > 100 µM (inactive) | > 100 µM (inactive) | > 100 µM (inactive) | > 100 µM (inactive) | > 100 µM (inactive) | > 100 µM (inactive) | > 100 µM (inactive) | > 100 µM (inactive) | > 100 µM (inactive) | > 100 µM (inactive) | > 100 µM (inactive) | > 100 µM (inactive) | > 100 µM (inactive) | > 100 µM (inactive) | > 100 µM (inactive) | > 100 µM (inactive) | > 100 µM (inactive) | > 100 µM (inactive) | > 100 µM (inactive)
5 | Cc1c2ccccc2c(C)n2c1nc1cc(Cl)c(Cl)cc12 | 0.0296 µM (active) | > 10 µM (inactive) | > 10 µM (inactive) | – | > 10 µM (inactive) | 8.65 µM (inactive) | 1.59 µM (inactive) | > 10 µM (inactive) | > 10 µM (inactive) | > 10 µM (inactive) | > 10 µM (inactive) | 5.81 µM (inactive) | > 10 µM (inactive) | > 10 µM (inactive) | > 10 µM (inactive) | > 10 µM (inactive) | > 10 µM (inactive) | > 10 µM (inactive) | > 10 µM (inactive) | 0.172 µM (active)
6 | CC1=COC(C)(C=C(C#N)C#N)CC1 (stereo not drawn) | > 100 µM (inactive) | 30.5 µM (inactive) | 88.3 µM (inactive) | > 100 µM (inactive) | 15.4 µM (inactive) | > 100 µM (inactive) | 36.6 µM (inactive) | > 100 µM (inactive) | > 100 µM (inactive) | 35.3 µM (inactive) | > 100 µM (inactive) | – | > 100 µM (inactive) | > 100 µM (inactive) | 52.6 µM (inactive) | 31 µM (inactive) | 34.8 µM (inactive) | 67.5 µM (inactive) | 71 µM (inactive) | 48.4 µM (inactive)
7 | C1=N\CCOCC/N=C/c2ccccc2OCc2cccc(n2)COc2ccccc2/1 | – | 2.38 µM (inactive) | 6.3 µM (inactive) | 7.98 µM (inactive) | 6.82 µM (inactive) | 4.02 µM (inactive) | 4.32 µM (inactive) | 6.04 µM (inactive) | 9.51 µM (inactive) | 4.76 µM (inactive) | 6.61 µM (inactive) | 20.3 µM (inactive) | 16.6 µM (inactive) | 9.59 µM (inactive) | 6.38 µM (inactive) | 0.977 µM (active) | 7.85 µM (inactive) | 8.93 µM (inactive) | 8.13 µM (inactive) | 3.39 µM (inactive)
8 | OCCN(C1=NCCN1)/[N+](=C\c1ccccn1)[CH-]c1ccccn1 | > 100 µM (inactive) | > 100 µM (inactive) | > 100 µM (inactive) | > 100 µM (inactive) | > 100 µM (inactive) | > 100 µM (inactive) | > 100 µM (inactive) | > 100 µM (inactive) | – | > 100 µM (inactive) | > 100 µM (inactive) | > 100 µM (inactive) | > 100 µM (inactive) | – | > 100 µM (inactive) | 8.87 µM (inactive) | > 100 µM (inactive) | > 100 µM (inactive) | > 100 µM (inactive) | > 100 µM (inactive)
9 | COc1ccc(N[S+]([O-])c2ccccc2OC)cc1 (stereo not drawn) | 13.4 µM (inactive) | 8.28 µM (inactive) | 7.87 µM (inactive) | 12.3 µM (inactive) | 21.7 µM (inactive) | 31.7 µM (inactive) | 20.2 µM (inactive) | 12.5 µM (inactive) | 36.2 µM (inactive) | 26.1 µM (inactive) | 27.5 µM (inactive) | 5.26 µM (inactive) | 38.9 µM (inactive) | – | 23.7 µM (inactive) | 11.9 µM (inactive) | 4.98 µM (inactive) | 15 µM (inactive) | 54.8 µM (inactive) | 15.9 µM (inactive)
10 | CCOC(=O)/C(C#N)=N\Nc1ccc(-n2c(C)nc3ccccc3c2=O)cc1 | 24.5 µM (inactive) | 49.1 µM (inactive) | 51.2 µM (inactive) | 50.4 µM (inactive) | 59 µM (inactive) | 56.9 µM (inactive) | 84.3 µM (inactive) | > 100 µM (inactive) | > 100 µM (inactive) | > 100 µM (inactive) | 77.6 µM (inactive) | – | 53.2 µM (inactive) | – | 29.6 µM (inactive) | 39.4 µM (inactive) | 30.2 µM (inactive) | > 100 µM (inactive) | 33.2 µM (inactive) | 18.9 µM (inactive)
11 | O=c1[nH]nc(Cc2ccccc2)n1/N=C/c1c(O)ccc2ccccc12 | 24.5 µM (inactive) | 23.2 µM (inactive) | 21.2 µM (inactive) | 36.1 µM (inactive) | 19.4 µM (inactive) | 26.9 µM (inactive) | 37.9 µM (inactive) | 18.2 µM (inactive) | 18.4 µM (inactive) | 43.6 µM (inactive) | 57 µM (inactive) | 16.6 µM (inactive) | 20.7 µM (inactive) | 22.3 µM (inactive) | 21 µM (inactive) | 21.3 µM (inactive) | 19.7 µM (inactive) | 19.7 µM (inactive) | – | 20.1 µM (inactive)
12 | N/C(=N\c1ccc(Cl)cc1)NS(=O)(=O)c1ccc(-c2ncccc2C(F)(F)F)s1 | 17.2 µM (inactive) | 13.1 µM (inactive) | 12 µM (inactive) | 17.2 µM (inactive) | 17.1 µM (inactive) | 16.1 µM (inactive) | 14.7 µM (inactive) | 13.1 µM (inactive) | 18.6 µM (inactive) | – | 17.1 µM (inactive) | 10.4 µM (inactive) | 4.61 µM (inactive) | 18.3 µM (inactive) | 14.6 µM (inactive) | 10.5 µM (inactive) | 23.9 µM (inactive) | 13.9 µM (inactive) | 16.9 µM (inactive) | 18.8 µM (inactive)
13 | COc1ccc(/C=C2\CCS(=O)(=O)c3ccccc3C2=O)cc1OC | 29.1 µM (inactive) | > 100 µM (inactive) | 7.91 µM (inactive) | 31 µM (inactive) | 20.7 µM (inactive) | 43.6 µM (inactive) | 12.2 µM (inactive) | 31.9 µM (inactive) | 42.8 µM (inactive) | 28.9 µM (inactive) | 23.6 µM (inactive) | – | 38.2 µM (inactive) | 54.8 µM (inactive) | 19.1 µM (inactive) | 43.5 µM (inactive) | 28.4 µM (inactive) | 30.8 µM (inactive) | 53.1 µM (inactive) | 28.8 µM (inactive)
14 | O=C1CC(n2cccc2)c2cc(Br)sc21 (stereo not drawn) | > 100 µM (inactive) | > 100 µM (inactive) | > 100 µM (inactive) | > 100 µM (inactive) | > 100 µM (inactive) | > 100 µM (inactive) | 69.5 µM (inactive) | > 100 µM (inactive) | > 100 µM (inactive) | 18.7 µM (inactive) | > 100 µM (inactive) | 21.6 µM (inactive) | > 100 µM (inactive) | – | 36.9 µM (inactive) | 15.8 µM (inactive) | > 100 µM (inactive) | > 100 µM (inactive) | > 100 µM (inactive) | > 100 µM (inactive)
15 | C=CCn1cnc2c(O)nc(Nc3ccccc3)nc21 | > 100 µM (inactive) | – | > 100 µM (inactive) | 50.5 µM (inactive) | > 100 µM (inactive) | > 100 µM (inactive) | > 100 µM (inactive) | > 100 µM (inactive) | > 100 µM (inactive) | > 100 µM (inactive) | > 100 µM (inactive) | > 100 µM (inactive) | > 100 µM (inactive) | – | > 100 µM (inactive) | > 100 µM (inactive) | > 100 µM (inactive) | > 100 µM (inactive) | > 100 µM (inactive) | > 100 µM (inactive)
